In ChEMBL document CHEMBL6083240, “Design, synthesis and biological evaluation of arylpropylamine derivatives as potential multi-target antidepressants” (Bioorg Med Chem, 2024):
Active and inactive are the calls of the source. The rule behind the calls is not given here.

Experiments:
[1] = AUC(0 to t) in CD1 mouse at 2 mg/kg, iv measured upto 10 hrs by LC-MS analysis; format: ADME, organism-based; settings: in vivo
Mus musculus [2] = test: Antidepressant activity in Kunming mouse chronic unpredictable mild stress model assessed as increase in sucrose preference at 0.5 to 6 mg/kg, IG measured after 1 week; format: functional, organism-based; settings: dose 0.5-6 mg/kg, time 1.0 weeks
[3] = target: Sigma intracellular receptor 2 (Homo sapiens, UniProt Q5BJF2); test: Binding affinity to sigma 2 receptor (unknown origin)
Sigma intracellular receptor 2, sequence (Q5BJF2 whole entry): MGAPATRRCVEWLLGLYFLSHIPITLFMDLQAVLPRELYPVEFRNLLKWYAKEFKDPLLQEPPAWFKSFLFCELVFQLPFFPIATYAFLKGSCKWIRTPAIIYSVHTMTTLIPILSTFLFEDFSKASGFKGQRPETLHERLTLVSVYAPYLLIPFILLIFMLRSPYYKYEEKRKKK

Transporter = Transporter (Rattus norvegicus, UniProt Q63380); test: Antagonist activity at rat cerebral cortex membrane NET incubated for 10 mins in presence of [3H]-NE; format: cell membranes
[4] = Oral bioavailability in CD1 mouse at 15 mg/kg measured upto 24 hrs by LC-MS analysis; format: ADME, organism-based; settings: in vivo
[5] = target: Muscarinic acetylcholine receptor M3 (Homo sapiens, UniProt P20309); test: Binding affinity to M3 receptor (unknown origin)
[6] = target: T1, Sodium-dependent serotonin transporter (Rattus norvegicus, UniProt P31652); test: Displacement of [3H]-paroxetine from SERT in rat cerebral cortex incubated for 10 mins by liquid scintillation counting method; format: tissue-based
T1 sequence (P31652 whole entry): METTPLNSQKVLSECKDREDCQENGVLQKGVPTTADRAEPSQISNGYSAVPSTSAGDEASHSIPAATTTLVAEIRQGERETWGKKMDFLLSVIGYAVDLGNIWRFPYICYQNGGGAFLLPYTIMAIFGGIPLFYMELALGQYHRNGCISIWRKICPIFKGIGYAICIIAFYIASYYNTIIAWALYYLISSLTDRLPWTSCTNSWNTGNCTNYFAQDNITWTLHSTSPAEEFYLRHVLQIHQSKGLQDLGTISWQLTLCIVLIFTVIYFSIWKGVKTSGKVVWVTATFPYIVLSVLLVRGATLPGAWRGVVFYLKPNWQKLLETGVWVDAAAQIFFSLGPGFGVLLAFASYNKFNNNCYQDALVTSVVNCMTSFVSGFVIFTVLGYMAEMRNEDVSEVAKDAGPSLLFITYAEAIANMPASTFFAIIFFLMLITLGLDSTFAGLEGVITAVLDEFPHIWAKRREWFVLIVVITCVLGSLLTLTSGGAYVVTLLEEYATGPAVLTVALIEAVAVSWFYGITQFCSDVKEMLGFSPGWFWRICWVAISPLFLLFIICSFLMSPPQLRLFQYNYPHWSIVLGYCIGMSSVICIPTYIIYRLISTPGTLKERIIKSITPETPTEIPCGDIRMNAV

Mus musculus [7] = test: Antidepressant activity in Kunming mouse chronic unpredictable mild stress model assessed as increase in sucrose preference at 2 to 6 mg/kg, IG measured after 3 weeks; format: functional, organism-based; settings: dose 2-6 mg/kg
[8] = target: Sodium-dependent dopamine transporter (Homo sapiens, UniProt Q01959); test: Binding affinity to DAT (unknown origin)
[9] = Cmax in CD1 mouse at 15 mg/kg, po measured upto 24 hrs by LC-MS analysis; format: ADME, organism-based; settings: in vivo
[10] = target: 5-hydroxytryptamine receptor 6 (Homo sapiens, UniProt P50406); test: Binding affinity to 5-HT6 receptor (unknown origin)
5-hydroxytryptamine receptor 6, sequence (P50406 whole entry): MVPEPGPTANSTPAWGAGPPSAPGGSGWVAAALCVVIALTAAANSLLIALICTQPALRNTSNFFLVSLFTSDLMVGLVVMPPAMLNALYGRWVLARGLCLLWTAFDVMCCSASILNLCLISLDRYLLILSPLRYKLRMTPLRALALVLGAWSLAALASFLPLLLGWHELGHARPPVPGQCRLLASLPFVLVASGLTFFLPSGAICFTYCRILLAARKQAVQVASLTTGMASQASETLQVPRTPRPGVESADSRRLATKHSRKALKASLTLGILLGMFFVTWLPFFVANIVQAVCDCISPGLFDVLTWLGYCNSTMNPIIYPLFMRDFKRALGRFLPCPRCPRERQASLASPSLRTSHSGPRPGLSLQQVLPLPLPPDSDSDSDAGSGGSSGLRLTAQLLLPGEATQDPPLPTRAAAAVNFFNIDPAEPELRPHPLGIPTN

[11] = MRTlast in CD1 mouse at 15 mg/kg, po measured upto 24 hrs by LC-MS analysis; format: ADME, organism-based; settings: in vivo
[12] = AUC(0 to t) in CD1 mouse at 15 mg/kg, po measured upto 24 hrs by LC-MS analysis; format: ADME, organism-based; settings: in vivo
Mus musculus [13] = test: Antidepressant activity in IG dosed Kunming mouse assessed as decrease in immobility time by measuring minimal effective dose by forced swimming test; format: functional
[14] = target: 5-hydroxytryptamine receptor 2C (Homo sapiens, UniProt P28335); test: Antagonist activity at 5-HT2C in HEK293 cells incubated for 60 mins by FLIPR assay; format: cell-based
5-hydroxytryptamine receptor 2C, sequence (P28335 whole entry): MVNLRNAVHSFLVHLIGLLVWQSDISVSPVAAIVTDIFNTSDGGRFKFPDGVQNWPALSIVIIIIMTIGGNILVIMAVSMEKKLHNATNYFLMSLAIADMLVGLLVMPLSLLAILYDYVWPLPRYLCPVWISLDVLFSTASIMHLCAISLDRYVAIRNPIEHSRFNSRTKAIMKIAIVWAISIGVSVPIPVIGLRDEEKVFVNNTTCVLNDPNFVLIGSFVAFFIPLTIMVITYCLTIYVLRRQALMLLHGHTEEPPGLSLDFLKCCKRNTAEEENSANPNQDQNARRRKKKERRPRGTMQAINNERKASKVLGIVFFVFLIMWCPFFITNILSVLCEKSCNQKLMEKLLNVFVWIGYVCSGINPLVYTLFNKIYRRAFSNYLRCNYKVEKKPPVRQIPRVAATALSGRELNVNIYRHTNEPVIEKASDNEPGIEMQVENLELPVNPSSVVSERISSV

[15] = AUC(0 to infinity) in CD1 mouse at 15 mg/kg, po measured upto 24 hrs by LC-MS analysis; format: ADME, organism-based; settings: in vivo
[16] = target: 5-hydroxytryptamine receptor 1A (Homo sapiens, UniProt P08908); test: Binding affinity to 5-HT1A receptor (unknown origin)
5-hydroxytryptamine receptor 1A, sequence (P08908 whole entry): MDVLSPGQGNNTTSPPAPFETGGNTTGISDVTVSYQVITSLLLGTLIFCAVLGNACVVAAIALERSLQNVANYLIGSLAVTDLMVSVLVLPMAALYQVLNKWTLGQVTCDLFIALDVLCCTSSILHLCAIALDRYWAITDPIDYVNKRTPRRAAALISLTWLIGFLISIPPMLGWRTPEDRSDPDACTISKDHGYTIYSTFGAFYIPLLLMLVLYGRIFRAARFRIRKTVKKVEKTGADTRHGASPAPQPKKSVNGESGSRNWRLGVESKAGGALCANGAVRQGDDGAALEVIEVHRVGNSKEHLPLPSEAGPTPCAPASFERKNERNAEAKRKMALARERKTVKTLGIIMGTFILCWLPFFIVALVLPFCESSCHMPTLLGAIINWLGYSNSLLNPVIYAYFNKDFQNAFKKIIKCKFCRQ

[17] = Half-life in CD1 mouse at 15 mg/kg, po measured upto 24 hrs by LC-MS analysis; format: ADME, organism-based; settings: in vivo
[18] = target: Muscarinic acetylcholine receptor M2 (Homo sapiens, UniProt P08172); test: Binding affinity to M2 receptor (unknown origin)
[19] = target: T2, 5-hydroxytryptamine receptor 2A (Homo sapiens, UniProt P28223); test: Antagonist activity at 5-HT2A in HEK293 cells at 10 uM incubated for 60 mins by FLIPR assay relative to control; format: cell-based; parameters: scale not given: the % may be the effect or the level left; settings: filed as antagonist
T2 sequence (P28223 whole entry): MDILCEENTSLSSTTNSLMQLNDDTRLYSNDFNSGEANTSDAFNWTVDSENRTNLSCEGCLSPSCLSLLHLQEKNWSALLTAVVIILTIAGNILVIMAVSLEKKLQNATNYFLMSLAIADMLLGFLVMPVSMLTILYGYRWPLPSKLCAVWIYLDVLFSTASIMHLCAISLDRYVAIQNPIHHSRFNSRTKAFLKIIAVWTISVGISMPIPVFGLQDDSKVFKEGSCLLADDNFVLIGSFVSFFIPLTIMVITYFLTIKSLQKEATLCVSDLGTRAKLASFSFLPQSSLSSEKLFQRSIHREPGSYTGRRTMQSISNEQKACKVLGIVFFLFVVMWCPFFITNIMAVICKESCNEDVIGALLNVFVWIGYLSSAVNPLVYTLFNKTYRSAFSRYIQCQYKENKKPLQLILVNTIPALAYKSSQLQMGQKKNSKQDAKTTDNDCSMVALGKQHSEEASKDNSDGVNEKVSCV

[20] = target: Muscarinic acetylcholine receptor M1 (Homo sapiens, UniProt P11229); test: Binding affinity to M1 receptor (unknown origin)
Muscarinic acetylcholine receptor M1, sequence (P11229 whole entry): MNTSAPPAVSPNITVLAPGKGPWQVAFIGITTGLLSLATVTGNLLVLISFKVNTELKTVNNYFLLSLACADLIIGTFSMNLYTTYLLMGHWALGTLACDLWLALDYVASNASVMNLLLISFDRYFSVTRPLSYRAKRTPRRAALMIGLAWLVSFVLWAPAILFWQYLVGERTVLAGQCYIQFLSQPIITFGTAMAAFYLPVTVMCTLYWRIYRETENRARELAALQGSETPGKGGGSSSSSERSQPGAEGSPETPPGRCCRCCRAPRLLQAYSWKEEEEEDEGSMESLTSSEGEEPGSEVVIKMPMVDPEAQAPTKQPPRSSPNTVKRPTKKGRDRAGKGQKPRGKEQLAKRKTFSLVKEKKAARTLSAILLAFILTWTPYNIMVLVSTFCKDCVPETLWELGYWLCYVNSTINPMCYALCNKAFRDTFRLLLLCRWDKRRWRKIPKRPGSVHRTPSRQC

[21] = Tmax in CD1 mouse at 2 mg/kg, iv measured upto 10 hrs by LC-MS analysis; format: ADME, organism-based; settings: in vivo
[22] = target: Alpha-2A adrenergic receptor (Homo sapiens, UniProt P08913); test: Binding affinity to alpha-2 adrenergic receptor (unknown origin)
Alpha-2A adrenergic receptor, sequence (P08913 whole entry): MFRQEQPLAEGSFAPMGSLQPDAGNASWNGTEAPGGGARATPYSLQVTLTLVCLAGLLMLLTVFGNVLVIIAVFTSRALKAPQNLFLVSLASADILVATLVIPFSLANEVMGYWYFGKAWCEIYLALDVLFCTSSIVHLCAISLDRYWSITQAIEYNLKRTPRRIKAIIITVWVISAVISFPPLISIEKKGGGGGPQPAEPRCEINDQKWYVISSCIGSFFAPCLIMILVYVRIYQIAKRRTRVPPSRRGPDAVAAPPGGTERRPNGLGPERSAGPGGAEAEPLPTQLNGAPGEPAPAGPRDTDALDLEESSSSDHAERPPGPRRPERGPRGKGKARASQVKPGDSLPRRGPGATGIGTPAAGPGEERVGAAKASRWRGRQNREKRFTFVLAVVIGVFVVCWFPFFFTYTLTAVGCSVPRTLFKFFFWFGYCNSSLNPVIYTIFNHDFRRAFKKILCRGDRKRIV

Rattus norvegicus = test: Antidepressant activity against ACTH-induced treatment resistant depression in Sprague-Dawley rat model assessed as reduction in immobility time at 20 to 40 mg/kg, IG by forced swimming test; format: functional, organism-based; settings: dose 20-40 mg/kg
[23] = target: Sigma non-opioid intracellular receptor 1 (Homo sapiens, UniProt Q99720); test: Binding affinity to sigma 1 receptor (unknown origin)
Sigma non-opioid intracellular receptor 1, sequence (Q99720 whole entry): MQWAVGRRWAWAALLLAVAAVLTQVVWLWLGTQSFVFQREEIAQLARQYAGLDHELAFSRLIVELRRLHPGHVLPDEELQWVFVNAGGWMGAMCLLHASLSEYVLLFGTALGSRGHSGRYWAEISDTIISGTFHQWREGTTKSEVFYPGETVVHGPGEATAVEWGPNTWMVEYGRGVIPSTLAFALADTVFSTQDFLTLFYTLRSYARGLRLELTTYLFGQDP

[24] = target: T1, Sodium-dependent serotonin transporter; test: Antagonist activity at rat cerebral cortex membrane SERT incubated for 10 mins in presence of [3H]5-HT; format: cell membranes
[25] = MRTlast in CD1 mouse at 2 mg/kg, iv measured upto 10 hrs by LC-MS analysis; format: ADME, organism-based; settings: in vivo
Mus musculus [26] = test: Antidepressant activity in IG dosed Kunming mouse assessed as decrease in immobility time by measuring minimal effective dose by tail suspension test; format: functional
[27] = target: 5-hydroxytryptamine receptor 7 (Homo sapiens, UniProt P34969); test: Binding affinity to 5-HT7 receptor (unknown origin)
[28] = target: Sodium-dependent serotonin transporter (Rattus norvegicus) (UniProt P31652); test: Antagonist activity at rat cerebral cortex membrane SERT at 10 uM incubated for 10 mins in presence of [3H]5-HT relative to control; format: cell membranes; parameters: scale not given: the % may be the effect or the level left; settings: filed as antagonist
Sodium-dependent serotonin transporter (Rattus norvegicus), sequence (P31652 whole entry): as the sequence (P31652 whole entry) above

[29] = target: Muscarinic acetylcholine receptor M4 (Homo sapiens, UniProt P08173); test: Binding affinity to M4 receptor (unknown origin)
Muscarinic acetylcholine receptor M4, sequence (P08173 whole entry): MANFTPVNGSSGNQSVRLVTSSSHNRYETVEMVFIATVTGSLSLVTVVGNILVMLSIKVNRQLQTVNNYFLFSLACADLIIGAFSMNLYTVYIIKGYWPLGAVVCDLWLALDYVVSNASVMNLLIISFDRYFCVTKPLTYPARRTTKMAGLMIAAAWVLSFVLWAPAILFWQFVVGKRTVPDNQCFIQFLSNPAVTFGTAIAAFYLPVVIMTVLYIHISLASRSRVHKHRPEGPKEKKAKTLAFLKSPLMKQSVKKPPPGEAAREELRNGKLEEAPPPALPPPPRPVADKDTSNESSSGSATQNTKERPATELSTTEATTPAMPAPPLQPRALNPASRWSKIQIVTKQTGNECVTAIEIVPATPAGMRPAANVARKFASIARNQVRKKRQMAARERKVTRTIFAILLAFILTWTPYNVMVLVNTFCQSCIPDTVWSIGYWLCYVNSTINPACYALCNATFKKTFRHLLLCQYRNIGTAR

[30] = target: T3, Alpha-1A adrenergic receptor (Rattus norvegicus, UniProt P43140); test: Displacement of [3H]-prazosin from adrenergic alpha-1 receptor in rat cerebral cortex incubated for 60 mins by liquid scintillation counting method; format: toxicity, tissue-based
T3 sequence (P43140 whole entry): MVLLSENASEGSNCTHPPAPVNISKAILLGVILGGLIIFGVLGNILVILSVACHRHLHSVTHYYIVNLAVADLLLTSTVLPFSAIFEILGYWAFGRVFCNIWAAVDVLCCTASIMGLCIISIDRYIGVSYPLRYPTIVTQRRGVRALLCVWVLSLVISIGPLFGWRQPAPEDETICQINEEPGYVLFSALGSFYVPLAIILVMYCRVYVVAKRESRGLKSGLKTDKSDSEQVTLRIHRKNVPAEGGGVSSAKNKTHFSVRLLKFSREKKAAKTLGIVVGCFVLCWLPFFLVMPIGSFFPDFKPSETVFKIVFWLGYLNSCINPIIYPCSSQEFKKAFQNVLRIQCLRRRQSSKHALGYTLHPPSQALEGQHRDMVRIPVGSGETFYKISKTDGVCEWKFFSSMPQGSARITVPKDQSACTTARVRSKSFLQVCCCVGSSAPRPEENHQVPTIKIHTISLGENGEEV

[31] = target: Sodium-dependent serotonin transporter (Rattus norvegicus) (UniProt P31652); test: Agonist activity at rat cerebral cortex membrane SERT at 10 uM incubated for 10 mins in presence of [3H]5-HT relative to control; format: cell membranes
Mus musculus [32] = test: Antidepressant activity in Kunming mouse chronic unpredictable mild stress model assessed as increase in sucrose preference at 4 mg/kg, IG measured after 2 weeks; format: functional, organism-based
[33] = Half-life in CD1 mouse at 2 mg/kg, iv measured upto 10 hrs by LC-MS analysis; format: ADME, organism-based; settings: in vivo
[34] = target: T2, 5-hydroxytryptamine receptor 2A; test: Antagonist activity at 5-HT2A in HEK293 cells incubated for 60 mins by FLIPR assay; format: cell-based
[35] = target: Transporter (Rattus norvegicus) (UniProt Q63380); test: Agonist activity at rat cerebral cortex membrane NET at 10 uM incubated for 10 mins in presence of [3H]-NE relative to control; format: cell membranes

Compound: CN(C)CC[C@@H](Oc1cccc2c1OCO2)c1ccc(F)cc1.O=C(O)C(=O)O
- AUC(0-t) at 10 h [1]: 304 ng·h/mL
- Activity (Mus musculus [2]): inactive
- Ki [3]: > 1 µM
- IC50 (Transporter): 0.087 µM
- bioavailability [4]: 20.3%
- Ki [5]: > 1 µM
- Ki [6]: 0.0058 µM
- Activity (Mus musculus [7]): Active
- Ki [8]: > 1 µM
- Cmax [9]: 144 ng/mL
- Ki [10]: > 1 µM
- MRT last at 24 h [11]: 3.1 h
- AUC(0-t) at 24 h [12]: 462 ng·h/mL
- Activity (Mus musculus [13]): Dose-dependent-effect
- minimal effective dose (Mus musculus [13]; po, read-out: MED): 6.4 mg/kg
- IC50 [14]: 0.0875 µM
- AUC(0-inf) [15]: 474 ng·h/mL
- Ki [16]: > 1 µM
- half-life [17]: 1.8 h
- Ki [18]: > 1 µM
- Activity [19]: 100%
- Ki [20]: 0.64 µM
- Tmax [21]: 4.8 min
- Ki [22]: > 1 µM
- Activity (Rattus norvegicus): Active
- Ki [23]: > 1 µM
- IC50 [24]: 0.0232 µM
- MRT last at 10 h [25]: 1.1 h
- Activity (Mus musculus [26]): Dose-dependent-effect
- minimal effective dose (Mus musculus [26]; po, read-out: MED): 6.4 mg/kg
- Ki [27]: > 1 µM
- Activity [28]: 99.7%
- Ki [29]: > 1 µM
- Ki [30]: 1.45 µM
- Activity [31]: 2.2%
- Activity (Mus musculus [32]): Active
- half-life [33]: 1.2 h
- IC50 [34]: 0.0361 µM
- Activity [35]: 5.6%
